Tests used:
Fusarium solani = experiment: Antifungal activity against Fusarium solani assessed as inhibition of mycelium growth at 100 ug/ml […]; format: functional; settings: 168 h, read-out: GI
Alternaria solani = experiment: Antifungal activity against Alternaria solani assessed as inhibition of mycelium growth at 100 ug/ml […]; format: functional; settings: 168 h, read-out: GI
[1] = tested on: Colletotrichum gloeosporioides; experiment: Antifungal activity against Colletotrichum gloeosporioides assessed as inhibition of mycelium growth at 100 ug/ml after 3 to 4 days; settings: 72 to 96 h, read-out: GI
Cytospora = experiment: Antifungal activity against Cytospora sp. assessed as inhibition of mycelium growth at 100 ug/ml after 3 to 4 days; settings: 72 to 96 h, read-out: GI
Botrytis cinerea = experiment: Antifungal activity against Botryotinia fuckeliana assessed as inhibition of mycelium growth at 100 ug/ml […]; format: functional; settings: 168 h, read-out: GI

Cn1c(COc2ccc(C(C)(C)C)cc2)nc2ccccc21
inhibition of growth at 100 µg/mL (Fusarium solani): < 5%
inhibition of growth at 100 µg/mL (Alternaria solani): 23.6%
inhibition of growth at 100 µg/mL [1]: 63.8%
inhibition of growth at 100 µg/mL (Cytospora): 28.2%
inhibition of growth at 100 µg/mL (Botrytis cinerea): 64.8%

COc1cc(C=O)ccc1OCc1nc2ccccc2n1C
inhibition of growth at 100 µg/mL (Fusarium solani): 24.7%
inhibition of growth at 100 µg/mL (Alternaria solani): 40.9%
inhibition of growth at 100 µg/mL [1]: < 5%
inhibition of growth at 100 µg/mL (Cytospora): 10.2%
inhibition of growth at 100 µg/mL (Botrytis cinerea): 15.2%

COc1cc(C(C)=O)ccc1OCc1nc2ccccc2n1C
inhibition of growth at 100 µg/mL (Fusarium solani): < 5%
inhibition of growth at 100 µg/mL (Alternaria solani): 17.9%
inhibition of growth at 100 µg/mL [1]: 14.3%
inhibition of growth at 100 µg/mL (Cytospora): 26%
inhibition of growth at 100 µg/mL (Botrytis cinerea): 59.1%

Cn1c(COc2ccc([N+](=O)[O-])cc2)nc2ccccc21
inhibition of growth at 100 µg/mL (Fusarium solani): 8.6%
inhibition of growth at 100 µg/mL (Alternaria solani): 11.3%
inhibition of growth at 100 µg/mL [1]: 41.3%
inhibition of growth at 100 µg/mL (Cytospora): 19.5%
inhibition of growth at 100 µg/mL (Botrytis cinerea): < 5%

CC(=O)c1cccc(OCc2nc3cc([N+](=O)[O-])ccc3n2C)c1
inhibition of growth at 100 µg/mL (Fusarium solani): < 5%
inhibition of growth at 100 µg/mL (Alternaria solani): < 5%
inhibition of growth at 100 µg/mL [1]: < 5%
inhibition of growth at 100 µg/mL (Cytospora): 51.9%
inhibition of growth at 100 µg/mL (Botrytis cinerea): < 5%

CC(=O)c1ccccc1OCc1nc2cc([N+](=O)[O-])ccc2n1C
inhibition of growth at 100 µg/mL (Fusarium solani): < 5%
inhibition of growth at 100 µg/mL (Alternaria solani): 13.8%
inhibition of growth at 100 µg/mL [1]: < 5%
inhibition of growth at 100 µg/mL (Cytospora): < 5%
inhibition of growth at 100 µg/mL (Botrytis cinerea): < 5%

CC(=O)c1ccc(OCc2nc3cc([N+](=O)[O-])ccc3n2C)cc1
inhibition of growth at 100 µg/mL (Fusarium solani): < 5%
inhibition of growth at 100 µg/mL (Alternaria solani): 33.5%
inhibition of growth at 100 µg/mL [1]: < 5%
inhibition of growth at 100 µg/mL (Cytospora): < 5%
inhibition of growth at 100 µg/mL (Botrytis cinerea): 38.6%

CCCOC(=O)c1ccc(OCc2nc3cc([N+](=O)[O-])ccc3n2C)cc1
inhibition of growth at 100 µg/mL (Fusarium solani): 19.4%
inhibition of growth at 100 µg/mL (Alternaria solani): 8.05%
inhibition of growth at 100 µg/mL [1]: < 5%
inhibition of growth at 100 µg/mL (Cytospora): 10.9%
inhibition of growth at 100 µg/mL (Botrytis cinerea): < 5%

Cn1c(COc2ccc(F)cc2)nc2cc([N+](=O)[O-])ccc21
inhibition of growth at 100 µg/mL (Fusarium solani): 9.95%
inhibition of growth at 100 µg/mL (Alternaria solani): < 5%
inhibition of growth at 100 µg/mL [1]: < 5%
inhibition of growth at 100 µg/mL (Cytospora): 22.4%
inhibition of growth at 100 µg/mL (Botrytis cinerea): < 5%

Cn1c(COc2ccc(C=O)cc2)nc2cc([N+](=O)[O-])ccc21
inhibition of growth at 100 µg/mL (Fusarium solani): < 5%
inhibition of growth at 100 µg/mL (Alternaria solani): 16.3%
inhibition of growth at 100 µg/mL [1]: < 5%
inhibition of growth at 100 µg/mL (Cytospora): 9.48%
inhibition of growth at 100 µg/mL (Botrytis cinerea): < 5%

C=CCc1ccc(OCc2nc3cc([N+](=O)[O-])ccc3n2C)c(OC)c1
inhibition of growth at 100 µg/mL (Fusarium solani): 25.4%
inhibition of growth at 100 µg/mL (Alternaria solani): 35.1%
inhibition of growth at 100 µg/mL [1]: < 5%
inhibition of growth at 100 µg/mL (Cytospora): < 5%
inhibition of growth at 100 µg/mL (Botrytis cinerea): 24%

Cn1c(COc2cccc3ccccc23)nc2cc([N+](=O)[O-])ccc21
inhibition of growth at 100 µg/mL (Fusarium solani): < 5%
inhibition of growth at 100 µg/mL (Alternaria solani): 19.5%
inhibition of growth at 100 µg/mL [1]: < 5%
inhibition of growth at 100 µg/mL (Cytospora): < 5%
inhibition of growth at 100 µg/mL (Botrytis cinerea): < 5%

CCOC(=O)c1ccc(OCc2nc3cc([N+](=O)[O-])ccc3n2C)cc1
inhibition of growth at 100 µg/mL (Fusarium solani): < 5%
inhibition of growth at 100 µg/mL (Alternaria solani): 11.3%
inhibition of growth at 100 µg/mL [1]: < 5%
inhibition of growth at 100 µg/mL (Cytospora): < 5%
inhibition of growth at 100 µg/mL (Botrytis cinerea): < 5%

COC(=O)c1ccc(OCc2nc3cc([N+](=O)[O-])ccc3n2C)cc1
inhibition of growth at 100 µg/mL (Fusarium solani): 18%
inhibition of growth at 100 µg/mL (Alternaria solani): < 5%
inhibition of growth at 100 µg/mL [1]: 59.1%
inhibition of growth at 100 µg/mL (Cytospora): < 5%
inhibition of growth at 100 µg/mL (Botrytis cinerea): 32.2%

Cn1c(COc2ccc(C(C)(C)C)cc2)nc2cc([N+](=O)[O-])ccc21
inhibition of growth at 100 µg/mL (Fusarium solani): < 5%
inhibition of growth at 100 µg/mL (Alternaria solani): 30.2%
inhibition of growth at 100 µg/mL [1]: 30.2%
inhibition of growth at 100 µg/mL (Cytospora): < 5%
inhibition of growth at 100 µg/mL (Botrytis cinerea): 57.3%

Cn1c(COc2ccccc2)nc2cc([N+](=O)[O-])ccc21
inhibition of growth at 100 µg/mL (Fusarium solani): 5.91%
inhibition of growth at 100 µg/mL (Alternaria solani): 10.5%
inhibition of growth at 100 µg/mL [1]: < 5%
inhibition of growth at 100 µg/mL (Cytospora): < 5%
inhibition of growth at 100 µg/mL (Botrytis cinerea): 7.89%

— ChEMBL document CHEMBL3045720, “Synthesis and antifungal activity of 2-chloromethyl-1H-benzimidazole derivatives against phytopathogenic fungi in vitro” (J Agric Food Chem, 2013)
